What was measured:
[1] = system: cultured HUVECs; experiment: Surface-localized fibrinolytic activity (125I-labeled Glu-Pmg conversion to plasmin) in cultured HUVECs; format: cell-based, human; conditions: 1 hour preincubation; for surface-localized fibrinolytic activity, maximum increase: 0.001 μM, control 38.0 pmol/well; for surface-localized fibrinolytic activity, maximum increase / surface-localized fibrinolytic activity, peak: 24 hours after induction; for increase in fibrinolytic activity compared to control: measured 24 hours later; for surface-localized fibrinolytic activity, peak: 10 μM, control 38.0±4.0
Description: Human umbilical vein ECs (HUVECs) were obtained from fresh (discarded) umbilical cords by mild collagenase treatment (type 1, CLS) by the method of Jaffe et al (J. […] ECs were seeded into human fibronectin-coated Petri dishes (9.6 cm^2) or plastic flasks (25 cm^2) and grown to confluency. Cultures were maintained at 37° C. in a humidified 95% air, 5% CO2 atmosphere and re-fed every 48 hours with complete culture medium consisting of Medium 199 (M199) powdered medium containing L-glutamine and Earle's salt, 0.025 M HEPES buffer (pH 7.4), 0.0002 M fresh L-glutamine, 100 units/ml of penicillin, 100 μg/ml streptomycin, 10% heat-deactivated FBS, 90 μg/ml heparin and 50 μg/ml of unpurified ECGF. […] Cells were routinely counted using phase microscopy and a 0.5 mm×0.5 mm counting reticule. Individual HUVEC cultures were routinely examined for their purity and characterized as ECs by their uptake of Dil-Ac-LDL and typical monlayer “cobblestone” tight-packing morphology. Only individual cultures with 95% identifiable ECs were used in these studies. All alcohol induction studies were conducted with confluent cultured HUVECs (in 96-well plates) preincubated in the absence/presence of varying concentration of alcohol (0-0.1%, v/v) for one hour at 37° C., washed two times in DBPS, re-fed with complete 10% serum containing medium and then further incubated at 37° C. in the absence of alcohol for 24 hours. surface-localized fibrinolytic activity was measured as the conversion of ^125-labeled Glu-Pmg levels after 24 hours. All studies were conducted with confluent cultured HUVECs. The cells were preincubated in the absence/presence of varying dilutions (1:1000, 1:500, 1:250, 1:125, 1:62.5) of red wine, de-alcoholized red wine or grape juice for 1 hour at 37° C., washed two times with DPBS, re-fed with complete 10% serum-containing medium, and then further incubated at 37° C. in the absence of these compounds for 24 hours. Surface-localized fibrinolytic activity was measured as the conversion of ^125-labeled Glu-Pmg levels after 24 hours. All polyphenolic induction studies were conducted with confluent cultured HUVECs (in 96-well plates). The cells were preincubated in the absence/presence of varying concentrations (0.001-10 μM) of catechin, epicatechin, quercetin or resveratrol for 1 hour at 37° C., washed two times with DPBS, re-fed with complete 10% serum-containing medium, and then further incubated at 37° C. in the absence of these compounds for 24 hours. Surface-localized fibrinolytic activity was measured by the direct conversion of cell-bound ^125I-labeled Glu-Pmg hours after the initial induction period. […] The generation of either ^125I-labeled plasmin Mr 20-kDa light or Mr 83-kDa heavy chain formation was quantitated by phosphorimaging autoradiography after SDS-PAGE under reduced conditions. […] The cultures were then placed in a water bath at 37° C. to initiate the receptor-bound endogenous PA-mediated conversion of ^125I labeled Glu-Pmg to ^125I-labeled plasmin. Reactions were stopped after 1 and 10 minutes by the rapid addition of 40 μl of hot (56° C.) solubilizing buffer (4% sodium dodecyl sulfate (SDS), 10% glycerol and 0.2M Tris-HCl, pH 6.8). The total solubilized contents of each well containing generated ^125I-labeled plasmin were removed and reduced by the addition of 5% B-mercaptoethanol and boiling for 5 minutes. […] The radioactivity content of either the ^125I-labeled plasmin light- or heavy-chains was determined by quantitative phosphorimaging autoradiography. After electrophoresis, gels were dried and exposed in phosphorimaging cassettes for 16-18 hours. The amount of remaining ^125I-labeled Glu-Pmg and newly generated ^125I-labeled Mr 20-kDa plasmin light chain in each individual gel was quantitated by measuring the radioactivity content in each band by phosphorimaging autoradiography, using a Molecular Dynamics Series […] Phosphorimager in combination with ImageQuant software. […]

[2] = system: PAI-1 mRNA; experiment: PAI-1 mRNA expression in rat thoracic aorta endothelial cells by in situ hybridization after gavage; format: in vivo; conditions: 6 hours after gavage; catechin 0.495, epicatechin 0.224, quercetin 0.033, resveratrol 0.0033 mg/kg; ethanol 1.25% v/v
Description: (§1) Rats used in in vivo studies were Sprague Dawley rats weighing 250 to 300 grams.
In in vivo studies of rat thoracic aorta, eighteen male rats were treated by gavage as indicated above. One control group of three rats was gavaged with 1 ml of saline. Five experimental groups with three rats per group were then gavaged with 1 ml saline containing one of the following: (i) 1.25% (v/v) ethanol, (i) 0.495 mg catechin per kg body weight, (iii) 0.224 mg epicatechin per kg body weight, (iv) 0.033 mg quercetin per kg body weight, or (v) 0.0033 mg resveratrol per kg body weight.
At 3 and 6 hours following gavage, the animals were anesthetized with ketamine/rompin (10 and 1.5 mg/100 g body weight, respectively). The portal vein was cannulated and the vasculature perfused with cold, heparinized saline for 5 minutes to remove blood. […] The thoracic aorta was perfused-fixed and paraffin embedded to evaluate the short-term effects of alcohol/phenolics on PA1-I mRNA expression using in situ hybridization techniques.

[3] = system: t-PA mRNA; experiment: t-PA mRNA expression in rat aortic endothelium by in situ hybridization after gavage; format: in vivo, Sprague Dawley rats; conditions: 6 hours after gavage; catechin 0.495, epicatechin 0.224, quercetin 0.033, resveratrol 0.0033 mg/kg; ethanol 1.25% v/v
Description: as §1
For in vivo studies, 18 male Sprague Dawley rats, 250-300 g, were intubated with Popper feeding tubes (20 gauge, 1.5 inches). The control group of three rats were gavaged with PBS in a final volume of 1 ml. Five experimental groups with three rats per groups were gavaged with 1 ml of PBS containing either individual phenolic (catechin, 0.495; epicatechin, 0.224; quercetin, 0.033; and resveratrol, 0.0033 mg/kg body weight), or ethanol 1.25% v/v, for final 0.05% blood level. These doses of phenolics and ethanol are equivalent, on a per kg basis, to the amount consumed in about 2 glasses (25 ml) of red wine by a 70 kg adult. The t-PA and u-PA mRNA expression was analyzed at 6 hours after treatment, when the rats were anesthetized with ketamine/rompin. The thoracic aorta was perfusion-fixed and paraffin embedded to evaluate the effects of ethanol and individual phenolics on the induction of t-PA and u-PA mRNA expression in vivo in the aortic endothelium using in situ hybridization using riboprobes.
To insure that the t-PA and u-PA sense and antisense riboprobes were specific for their respective mRNAs in tissue sections, the sequence-verified riboprobes were hybridized with purified rat liver RNA, rich in t-PA and u-PA mRNA.

Row | Molecule | surface-localized fibrinolytic activity, maximum increase [1] [pmol/well] | expression of PAI-1 mRNA in endothelium of thoracic aorta [2] | t-PA mRNA chromogenic signal intensity (antisense riboprobe) in aortic tissue sections vs PBS-treated animals [3] | increase in fibrinolytic activity compared to control ([1]; 0.05% (v/v) ethanol, p=0.05) | increase in fibrinolytic activity compared to control ([1]; 0.1% (v/v) ethanol, p=0.0055) | surface-localized fibrinolytic activity, peak [1]
1 | Oc1cc(O)c2c(c1)O[C@H](c1ccc(O)c(O)c1)[C@H](O)C2 [epicatechin] | 89.0±4.0 |  |  |  |  | 
2 | catechin | 91.5±5.0 | markedly reduced | more chromogenic signal intensity |  |  | 
3 | CCO [ethanol, reference compound] |  | significant decrease | more chromogenic signal intensity | about 1.5 fold | about 3 fold | 
4 | Oc1ccc(C=Cc2cc(O)cc(O)c2)cc1 [resveratrol] |  | markedly reduced | more chromogenic signal intensity |  |  | 55.0±6.0
5 | O=c1c(O)c(-c2ccc(O)c(O)c2)oc2cc(O)cc(O)c12 [quercetin] |  | markedly reduced | more chromogenic signal intensity |  |  | 64.0±6.0

— patent publication US20020146424A1, “Polyphenolics for enhancing endothelial cell-mediated fibrinolysis” (priority 2001, published 2002)
